# Results from patent US8952024B2, “Herbicidal pyrimidone derivatives” (E I du Pont de Nemours and Company, priority 2009, dated 2015).
# Key:
# Assay type in all cases: in vivo
# [1] = system: wheat (Triticum aestivum); assay: Test A pre-/postemergence plant response; conditions: for Wheat plant response rating: visual injury, 0 to 100 scale (0 no effect, 100 complete control), approx. ten days
# Method in brief: (§1)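 Visual injury rating on a 0–100 scale (0 = no effect, 100 = complete control) was made versus untreated controls after about ten days in the greenhouse. Compounds, formulated in a non-phytotoxic solvent mix containing surfactant, were sprayed preemergence onto loam/sand soil and postemergence onto one- to two-leaf plants.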
# [2] = system: velvetleaf (Abutilon theophrasti); assay: Test A pre-/postemergence plant response; conditions: for Velvetleaf plant response rating: visual injury, 0 to 100 scale (0 no effect, 100 complete control), approx. ten days
# Method in brief: as §1
# [3] = system: barnyardgrass (Echinochloa crus-galli); assay: Test A pre-/postemergence plant response; conditions: for Barnyardgrass plant response rating: visual injury, 0 to 100 scale (0 no effect, 100 complete control), approx. ten days
# Method in brief: as §1
# [4] = system: pigweed (Amaranthus retroflexus); assay: Test A pre-/postemergence plant response; conditions: for Pigweed plant response rating: visual injury, 0 to 100 scale (0 no effect, 100 complete control), approx. ten days
# Method in brief: as §1
# [5] = system: giant foxtail (Setaria faberii); assay: Test A pre-/postemergence plant response; conditions: for Foxtail, Giant plant response rating: visual injury, 0 to 100 scale (0 no effect, 100 complete control), approx. ten days
# Method in brief: as §1
# [6] = system: morningglory (Ipomoea spp.); assay: Test A pre-/postemergence plant response; conditions: for Morningglory plant response rating: visual injury, 0 to 100 scale (0 no effect, 100 complete control), approx. ten days
# Method in brief: as §1
# [7] = system: large crabgrass (Digitaria sanguinalis); assay: Test A pre-/postemergence plant response; conditions: for Crabgrass, Large plant response rating: visual injury, 0 to 100 scale (0 no effect, 100 complete control), approx. ten days
# Method in brief: as §1
# corn (Zea mays) = assay: Test A pre-/postemergence plant response; conditions: for Corn plant response rating: visual injury, 0 to 100 scale (0 no effect, 100 complete control), approx. ten days
# Method in brief: as §1
# [8] = system: barnyardgrass (Echinochloa crus-galli); assay: Test B flooded paddy test; conditions: for Plant response rating, Barnyardgrass: Flood (flooded paddy test), 13 to 15 days; for Barnyardgrass plant response rating: Flood, 31 g ai/ha, scale 0 to 100 (0 no effect, 100 complete control)
# Method in brief: (§2)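 Seedlings reaching 2 leaves are flooded 3 cm deep; test material is delivered to that water, which stays at the same depth. Plants remain in a greenhouse 13–15 days and are then scored by eye versus controls from 0 to 100.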
# [9] = system: umbrella sedge (Cyperus difformis); assay: Test B flooded paddy test; conditions: for Plant response rating, Sedge, Umbrella: Flood (flooded paddy test), 13 to 15 days; for Sedge, Umbrella plant response rating: Flood, 31 g ai/ha, scale 0 to 100 (0 no effect, 100 complete control)
# Method in brief: as §2
# rice (Oryza sativa) = assay: Test B flooded paddy test; conditions: for Plant response rating, Rice: Flood (flooded paddy test), 13 to 15 days; for Rice plant response rating: Flood, 31 g ai/ha, scale 0 to 100 (0 no effect, 100 complete control)
# Method in brief: as §2
# [10] = system: ducksalad (Heteranthera limosa); assay: Test B flooded paddy test; conditions: for Plant response rating, Ducksalad: Flood (flooded paddy test), 13 to 15 days; for Ducksalad plant response rating: Flood, 31 g ai/ha, scale 0 to 100 (0 no effect, 100 complete control)
# Method in brief: as §2
# [11] = Postemergence, 125 g ai/ha, 0 to 100 scale where 0 is no effect and 100 is complete control
# [12] = Preemergence, 125 g ai/ha, 0 to 100 scale, 0 = no effect, 100 = complete control
# [13] = Preemergence, 500 g ai/ha, 0 to 100 scale, 0 = no effect, 100 = complete control
# [14] = 125 g ai/ha, scale 0 to 100, 0 is no effect, 100 is complete control
# [15] = 250 g ai/ha, flooded paddy test, visual rating on 0 to 100 scale (0 no effect, 100 complete control) after 13 to 15 days
# [16] = 62 g ai/ha, scale of 0 to 100 where 0 is no effect and 100 is complete control
compound,measurement,setting,value
COc1ccc(-n2c(-c3cccc(Br)c3)ncc(C(=O)C3=C(O)CCCC3=O)c2=O)cc1 [Compound 176],"Plant response rating, Wheat",[1]; [11],0
same,Wheat plant response rating,"[1]; Postemergence, 500 g ai/ha",0
same,"Plant response rating, Wheat",[1]; [12],0
same,"Plant response rating, Wheat",[1]; [13],0
same,"Plant response rating, Velvetleaf",[2]; [11],80
same,Velvetleaf plant response rating,"[2]; Postemergence, 500 g ai/ha",90
same,"Plant response rating, Velvetleaf",[2]; [12],10
same,"Plant response rating, Velvetleaf",[2]; [13],50
same,"Plant response rating, Barnyardgrass",[3]; [11],50
same,Barnyardgrass plant response rating,"[3]; Postemergence, 500 g ai/ha",90
same,"Plant response rating, Barnyardgrass",[3]; [12],10
same,"Plant response rating, Barnyardgrass",[3]; [13],30
same,"Plant response rating, Pigweed",[4]; [11],100
same,Pigweed plant response rating,"[4]; Postemergence, 500 g ai/ha",100
same,"Plant response rating, Pigweed",[4]; [12],60
same,"Plant response rating, Pigweed",[4]; [13],100
same,"Plant response rating, Foxtail, Giant",[5]; [11],10
same,"Foxtail, Giant plant response rating","[5]; Postemergence, 500 g ai/ha",70
same,"Plant response rating, Foxtail, Giant",[5]; [12],10
same,"Plant response rating, Foxtail, Giant",[5]; [13],50
same,"Plant response rating, Morningglory",[6]; [11],0
same,Morningglory plant response rating,"[6]; Postemergence, 500 g ai/ha",50
same,"Plant response rating, Morningglory",[6]; [12],0
same,"Plant response rating, Morningglory",[6]; [13],20
same,"Plant response rating, Crabgrass, Large",[7]; [11],10
same,"Crabgrass, Large plant response rating","[7]; Postemergence, 500 g ai/ha",60
same,"Plant response rating, Crabgrass, Large",[7]; [12],0
same,"Plant response rating, Crabgrass, Large",[7]; [13],20
same,"Plant response rating, Corn",corn (Zea mays); [11],0
same,Corn plant response rating,"corn (Zea mays); Postemergence, 500 g ai/ha",10
same,"Plant response rating, Corn",corn (Zea mays); [12],0
same,"Plant response rating, Corn",corn (Zea mays); [13],0
same,"Plant response rating, Barnyardgrass",[8]; [14],0
same,Barnyardgrass plant response rating,[8],0
same,"Plant response rating, Sedge, Umbrella",[9]; [14],85
same,"Sedge, Umbrella plant response rating",[9],70
same,"Plant response rating, Rice",rice (Oryza sativa); [14],20
same,Rice plant response rating,rice (Oryza sativa),15
same,"Plant response rating, Ducksalad",[10]; [14],75
same,Ducksalad plant response rating,[10],40
Cc1cccc(-c2ncc(C(=O)C3=C(O)CCCC3=O)c(=O)n2-c2cc(F)ccc2C)c1 [Compound 178],"Plant response rating, Wheat",[1]; [11],0
same,Wheat plant response rating,"[1]; Postemergence, 500 g ai/ha",30
same,"Plant response rating, Wheat",[1]; [12],0
same,"Plant response rating, Wheat",[1]; [13],0
same,"Plant response rating, Velvetleaf",[2]; [11],90
same,Velvetleaf plant response rating,"[2]; Postemergence, 500 g ai/ha",100
same,"Plant response rating, Velvetleaf",[2]; [12],0
same,"Plant response rating, Velvetleaf",[2]; [13],60
same,"Plant response rating, Barnyardgrass",[3]; [11],80
same,Barnyardgrass plant response rating,"[3]; Postemergence, 500 g ai/ha",90
same,"Plant response rating, Barnyardgrass",[3]; [12],0
same,"Plant response rating, Barnyardgrass",[3]; [13],50
same,"Plant response rating, Pigweed",[4]; [11],60
same,Pigweed plant response rating,"[4]; Postemergence, 500 g ai/ha",80
same,"Plant response rating, Pigweed",[4]; [12],0
same,"Plant response rating, Pigweed",[4]; [13],40
same,"Plant response rating, Foxtail, Giant",[5]; [11],50
same,"Foxtail, Giant plant response rating","[5]; Postemergence, 500 g ai/ha",80
same,"Plant response rating, Foxtail, Giant",[5]; [12],10
same,"Plant response rating, Foxtail, Giant",[5]; [13],50
same,"Plant response rating, Morningglory",[6]; [11],50
same,Morningglory plant response rating,"[6]; Postemergence, 500 g ai/ha",100
same,"Plant response rating, Morningglory",[6]; [12],0
same,"Plant response rating, Morningglory",[6]; [13],40
same,"Plant response rating, Crabgrass, Large",[7]; [11],50
same,"Crabgrass, Large plant response rating","[7]; Postemergence, 500 g ai/ha",80
same,"Plant response rating, Crabgrass, Large",[7]; [12],10
same,"Plant response rating, Crabgrass, Large",[7]; [13],70
same,"Plant response rating, Corn",corn (Zea mays); [11],0
same,Corn plant response rating,"corn (Zea mays); Postemergence, 500 g ai/ha",70
same,"Plant response rating, Corn",corn (Zea mays); [12],0
same,"Plant response rating, Corn",corn (Zea mays); [13],0
same,"Plant response rating, Flood, Barnyardgrass",[8]; [15],80
same,"Plant response rating, Barnyardgrass",[8]; [16],20
same,"Plant response rating, Barnyardgrass",[8]; [14],60
same,Barnyardgrass plant response rating,[8],20
same,"Plant response rating, Flood, Sedge, Umbrella",[9]; [15],95
same,"Plant response rating, Sedge, Umbrella",[9]; [16],85
same,"Plant response rating, Sedge, Umbrella",[9]; [14],95
same,"Sedge, Umbrella plant response rating",[9],55
same,"Plant response rating, Flood, Rice",rice (Oryza sativa); [15],70
same,"Plant response rating, Rice",rice (Oryza sativa); [16],20
same,"Plant response rating, Rice",rice (Oryza sativa); [14],70
same,Rice plant response rating,rice (Oryza sativa),0
same,"Plant response rating, Flood, Ducksalad",[10]; [15],100
same,"Plant response rating, Ducksalad",[10]; [16],75
same,"Plant response rating, Ducksalad",[10]; [14],100
same,Ducksalad plant response rating,[10],75
